We go through five molecules from patent US10682371B2, “Small molecule conjugates specifically activated in tumor microenvironment for targeting and use thereof” (priority 2014, dated 2020).

The test system of series [1] is Human fibrosarcoma HT-1080 tumor tissue homogenate. The format is biochemical. The conditions noted are these: for Activation ratio (%) in homogenates from different tumor tissues: Human fibrosarcoma HT-1080; for Activation Efficiencies (%): Human fibrosarcoma HT-1080 tumor tissue homogenate (30 μg/ml), 1 mg/ml compound. In outline: (§1)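 Protease-driven activation measured in acidized (pH 6.0) tissue homogenates, 100 μg. Incubation at 37°C with compound at 1 mg/ml.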

The test system of series [2] is tumor tissue homogenates. It counts as biochemical. The procedure, abridged:
as §1

The subject of series [3] is Human heart. It counts as biochemical. The note with it: for Activation ratio (%) in homogenates from different tumor tissues: Human heart, 1 mg/ml; for Activation Efficiencies (%): Human heart homogenate, 1 mg/ml compound.
Series [4] deals with Human prostate cancer PC-3 cells / Panc-1 cells. Kind of series: Tumor treatment in nude mice (PC-3 cells purchased, Panc-1 cells injected; Examples 22, 32, 42). The conditions noted are these: for Inhibition on tumor growth, in words: compared with parent drug group (same molar concentration) and control group. It counts as in vivo. The procedure, abridged:
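Nude mice bearing subcutaneous Panc-1 xenografts (5×10^6 cells on the back) were randomized once tumors reached at least 100 mm^3. Drugs were given intravenously once weekly for four weeks, with saline controls. PC-3 cells were grown in DMEM/10% FBS and used within passage 15.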

The test system of series [5] is BALB/C mice. Kind of series: Maximum tolerated dose (MTD) / acute toxicity by single intravenous injection. The note with it: for Behaviors and death observed: BALB/C mice receiving 90 mg/kg injection.
A short description of series [6]: Solubility / formulation test in solvent 1 and solvent 2. It counts as physicochemical. The note with it: for Concentration achieved, completely dissolved in both solvent 1 and solvent 2: solvent 1 injectable water. As for the experimental part:
In Table 11, AAN, AANL and AANK indicate the linkage formed by small peptides in the compounds, A is Ala, N is Asn, L is Leu and K is Lys. […] The dissolution concentration is 10 mg/ml.
B1, B2, B3 and B4 and various control compounds were dried under vacuum, sterilized via gas sterilization, and separately packing in a sterile room. Before animal test, B1, B2, B3 and B4 were dissolved by solvent 1 (injectable water) or solvent 2 (30% alcohol, 70% injectable water) and diluted by injectable water to the desired concentration in sterile room. […] Change in solubility may greatly affect the formulation scheme of a drug.
D1, D2, D3, D4 and various control compounds were dried under vacuum, sterilized via gas sterilization, and separately packing in a sterile room. […] Change in solubility may greatly affect the formulation scheme of a drug.

The subject of series [7] is 4T1 cells. Kind of series: BALB/C mice model for tumor metastasis (4T1, lung metastases). The format is in vivo. The note with it: for Inhibitory rate on metastasis / Number of metastasized tumor: IV every three days for 4 times, Paclitaxel 4 mg/kg; for Inhibitory effect on tumor metastasis, in words: compared with parent drug group and control group. The procedure, abridged: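 Read-out: lung metastasis count under anatomical microscope after Bouin's staining, day 27. Treatment (IV every three days ×4, saline for controls) started after surgical removal of the ~1.5 cm subcutaneous tumor grown from 10^6 4T1 cells (passage ≤15) in BALB/C mice.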

[8] abbreviates: nude mice, IV once weekly for four weeks, S1′-S4′ 24 mg/kg, Paclitaxel 8 mg/kg, Day 10.
[9] abbreviates: nude mice, IV once weekly for four weeks, S1′-S4′ 24 mg/kg, Paclitaxel 8 mg/kg.
[10] abbreviates: 4T1, BALB/C mice, lung, day 27, S1′-S4′ 12 mg/kg.
The mark [11] stands for this setting: Table 26, nude mice, IV once weekly for four weeks, A1-A4 24 mg/kg, Paclitaxel 8 mg/kg.
Where [12] appears, read: single intravenous injection, 125 mg/kg, 10 BALB/C mice per group.
Setting [13] is: single intravenous injection, 150 mg/kg, 10 BALB/C mice per group.
The mark [14] stands for this setting: single intravenous injection, 175 mg/kg, 10 BALB/C mice per group.
[15] abbreviates: single intravenous injection, 200 mg/kg, 10 BALB/C mice per group.
The mark [16] stands for this setting: Table 28, BALB/C mice, 4T1, lung metastases day 27, A1-A4 12 mg/kg.

Read-outs that look alike come from different tables or passages of the source.

Turning to `COCCOCCOCCOCCOCCOCCOCCOCCOCCOCCOCCOCC(=O)N[C@H](C)C(=O)N[C@H](C)C(=O)N[C@H](CC(N)=O)C(=O)Nc1ccc(COC(=O)OC(C(=O)OC2C[C@@]3(O)[C@@H](OC(=O)c4ccccc4)[C@H]4[C@](C)(C(=O)[C@H](OC(C)=O)C(=C2C)C3(C)C)[C@@H](O)CC2OC[C@]24OC(C)=O)[C@@H](NC(=O)c2ccccc2)c2ccccc2)cc1` (stereo partly drawn) [S3′], the “Activation ratio (%) in homogenates from different tumor tissues” value in series [1] (100 μg acidized homogenate pH6.0, 1 mg/ml, 37°) was 67.9%; in series [3] (37°), “none”. For the same molecule, the “Activation efficiency by tumor tissue, in words” value (from here on “Activation efficiency”) in series [2] is reported as “highest activation efficiency among the screened compounds”. Besides, the “Inhibition on tumor growth, in words” value in series [4] was “greatly improved”. Besides, the “Size of tumor (mm^3) Day 10” value in series [4] (setting [8]) was found to be 75.60 ± 28.54 mm^3. Also, the “inhibitory rate on tumor Day 10” value in series [4] (setting [8]) came out at 49.4%. In series [4] (setting [9]), the “Size of tumor (mm^3) Day 24” value was 74.39 ± 48.94 mm^3. Moreover, the “inhibitory rate on tumor Day 24” value in series [4] (setting [9]) is recorded as 70.2%. In series [5], the “Behaviors and death observed” value is “no pilo-erection, hair tousle and lackluster, lethargy, stoop, irritable reaction and death”. For the same molecule, the “Mortality rate (%)” value in series [5] (BALB/C mice, single iv, 125 mg/kg) was found to be 0%; in series [5] (BALB/C mice, single iv, 150 mg/kg) it was 0%; in series [5] (BALB/C mice, single iv, 175 mg/kg), 0%; in series [5] (BALB/C mice, single iv, 200 mg/kg), 10%. The “Number of dead animal” value in series [5] (BALB/C mice, single iv, 125 mg/kg, 10 animals) is reported as 0; in series [5] (BALB/C mice, single iv, 150 mg/kg, 10 animals) it was 0; in series [5] (BALB/C mice, single iv, 175 mg/kg, 10 animals), 0; in series [5] (BALB/C mice, single iv, 200 mg/kg, 10 animals), 1. The “solubility in Solvent 1” value in series [6] (Solvent 1 injectable water, dissolution concentration 10 mg/ml) was “soluble”. Besides, the “solubility in Solvent 2” value in series [6] (Solvent 2: 50% injectable water, 45%-49% propanediol, 1%-5% Tween80, dissolution concentration 10 mg/ml) is on record as “soluble”. Further, the “Concentration achieved, completely dissolved in both solvent 1 and solvent 2” value in series [6] (solvent 2 50% injectable water, 42%-49% propanediol, 1%-8% Tween80) turned out to be 10000 µg/mL. Also, the “Inhibitory rate on metastasis” value in series [7] (setting [10]) is recorded as 90.44%. The “Number of metastasized tumor” value in series [7] (setting [10]) is listed as 13 ± 8. The “Inhibitory effect on tumor metastasis, in words” value in series [7] is recorded as “greatly improved”.

As to “4-N—(N—(N—(N-(6-maleimido caproyl)-L-alanyl)-L-alanyl)-L-asparaginyl)-amino benzyl alcohol-MMAE-carbamate [Compound S6]”, the “Activation Efficiencies (%)” value is listed as 24.3% in series [1] and 5.3% in series [3]. Also, the “Activation efficiency” value in series [2] was “relatively low activation efficiency”.

For `COCCOCCOCCOCCOCCOCCOCCOCCOCCOCCOCCOCC(=O)NCCCC[C@H](NC(=O)COCCOCCOCCOCCOCCOCCOCCOCCOCCOCCOCCOC)C(=O)N[C@H](C)C(=O)N[C@H](C)C(=O)N[C@H](CC(N)=O)C(=O)Nc1ccc(COC(=O)OC(C(=O)OC2C[C@@]3(O)[C@@H](OC(=O)c4ccccc4)[C@H]4[C@](C)(C(=O)[C@H](OC(C)=O)C(=C2C)C3(C)C)[C@@H](O)CC2OC[C@]24OC(C)=O)[C@@H](NC(=O)c2ccccc2)c2ccccc2)cc1` (stereo partly drawn) [Compound A3], the “Activation ratio (%) in homogenates from different tumor tissues” value in series [1] (1 mg/ml, 100 μg acidized homogenate pH6.0, Paclitaxel release by HPLC) is 70.3%; in series [3] (acidized homogenate pH6.0, Paclitaxel release by HPLC), “none”. Moreover, in series [2], the “Activation efficiency” value was “highest activation efficiency among the screened compounds”. The “inhibitory rate on tumor Day 10” value in series [4] (Table 26, nude mice, IV once weekly for four weeks, A1-A4 24 mg/kg, Paclitaxel 8 mg/kg, Day 10) turned out to be 71.9%. In series [4] (setting [11]), the “Size of tumor (mm^3) Day 24” value amounted to 81.83 ± 89.2 mm^3. Moreover, the “inhibitory rate on tumor Day 24” value in series [4] (setting [11]) came to 78.5%. Further, in series [4], the “Inhibition on tumor growth, in words” value is listed as “greatly improved”. In addition, the “Behaviors and death observed” value in series [5] is “no pilo-erection, hair tousle and lackluster, lethargy, stoop, irritable reaction and death”. Also, the “Mortality rate (%)” value in series [5] (setting [12]) is 10%; in series [5] (setting [13]), 0%; in series [5] (setting [14]), 0%; in series [5] (setting [15]) it was 0%. Besides, the “Number of dead animal” value in series [5] (setting [12]) amounted to 1; in series [5] (setting [13]) it was 0; in series [5] (setting [14]), 0; in series [5] (setting [15]) it was 0. Further, the “solubility in Solvent 1” value in series [6] (solvent 1 (injectable water), Table 22, Paclitaxel series) is given as “soluble”. In addition, the “Concentration achieved, completely dissolved in both solvent 1 and solvent 2” value in series [6] (solvent 2 45% alcohol, 55% injectable water) came to 10000 µg/mL. Besides, the “solubility in Solvent 2” value in series [6] (solvent 2 (45% alcohol, 55% injectable water), Table 22, Paclitaxel series) is “soluble”. Moreover, in series [6] (water), the “Solubility in water, in words” value is “can directly dissolve in water”. The “Inhibitory rate on metastasis” value in series [7] (setting [16]) is listed as 89.1%. Also, the “Number of metastasized tumor” value in series [7] (setting [16]) is recorded as 16 ± 9. The “Inhibitory effect on tumor metastasis, in words” value in series [7] is given as “greatly improved”.

`COc1cccc2c1C(=O)c1c(O)c3c(c(O)c1C2=O)C[C@@](O)(C(C)=O)C[C@@H]3O[C@H]1C[C@H](NC(=O)OCc2ccc(NC(=O)[C@H](CC(N)=O)NC(=O)[C@H](C)NC(=O)[C@H](C)NC(=O)CCCCCN3C(=O)C=CC3=O)cc2)[C@H](O)[C@H](C)O1` [Compound S5, 4-N—(N—(N—(N-(6-maleimidocaproyl)-L-alanyl)-L-alanyl)-L-asparaginyl)-amino benzyl alcohol-daunorubicin-carbamate]: the “Activation Efficiencies (%)” value in series [1] is 98.4%; in series [3], 3.5%.

As to `CCCCCOC(=O)Nc1nc(=O)n([C@@H]2O[C@H](C)[C@@H](OC(=O)OCc3ccc(NC(=O)[C@H](CC(N)=O)NC(=O)[C@H](C)NC(=O)[C@H](C)NC(=O)CCCCCCC(=O)NO)cc3)[C@H]2O)cc1F` [Compound S3, 4-N—(N—(N—(N-(8-(N-hydroxylamino)-1,8-octandioic acid-1-monoacyl)-L-alanyl)-L-alanyl)-L-asparaginyl)-amino benzyl alcohol-capecitabine-carbonic acid diester], the “Activation Efficiencies (%)” value in series [1] is 94.9%; in series [3] it was 1.6%. Also, the “Activation efficiency” value in series [2] is given as “very high activation efficiency”.
